3 compounds from publication PMC4685510, “A Cell Biologist’s Field Guide to Aurora Kinase Inhibitors” (Frontiers in Oncology, 2015) can be followed below.

Experiment in all cases: biochemical
Common to all, as to assay type: biochemical

The target in experiment [1] is T1, 363 human kinases (including Aurora A/B/C) (Homo sapiens, UniProt O14965).
T1 sequence (O14965 1-403): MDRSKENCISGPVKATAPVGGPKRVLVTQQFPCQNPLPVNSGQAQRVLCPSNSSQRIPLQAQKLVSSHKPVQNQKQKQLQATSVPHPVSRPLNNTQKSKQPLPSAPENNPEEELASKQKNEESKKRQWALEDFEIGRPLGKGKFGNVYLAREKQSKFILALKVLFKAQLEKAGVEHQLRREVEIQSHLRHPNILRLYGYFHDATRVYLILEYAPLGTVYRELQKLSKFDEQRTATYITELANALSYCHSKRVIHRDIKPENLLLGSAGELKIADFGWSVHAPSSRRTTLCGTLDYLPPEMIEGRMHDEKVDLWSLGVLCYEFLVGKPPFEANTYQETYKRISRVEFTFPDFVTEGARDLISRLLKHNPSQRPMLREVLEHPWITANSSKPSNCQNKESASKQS
The following applies: [ATP] 2.5 µM; for remaining activity at 0.1 µM: 100 nM.
Text: (§1) However, the Aurora A/B selectivity ratios derived from our in vitro and in vivo data can be compared to prioritize inhibitors.

Experiment [2] deals with T2, 363 human kinases (including Aurora A/B/C) (Homo sapiens, UniProt Q13976).
T2 sequence (Q13976 1-671): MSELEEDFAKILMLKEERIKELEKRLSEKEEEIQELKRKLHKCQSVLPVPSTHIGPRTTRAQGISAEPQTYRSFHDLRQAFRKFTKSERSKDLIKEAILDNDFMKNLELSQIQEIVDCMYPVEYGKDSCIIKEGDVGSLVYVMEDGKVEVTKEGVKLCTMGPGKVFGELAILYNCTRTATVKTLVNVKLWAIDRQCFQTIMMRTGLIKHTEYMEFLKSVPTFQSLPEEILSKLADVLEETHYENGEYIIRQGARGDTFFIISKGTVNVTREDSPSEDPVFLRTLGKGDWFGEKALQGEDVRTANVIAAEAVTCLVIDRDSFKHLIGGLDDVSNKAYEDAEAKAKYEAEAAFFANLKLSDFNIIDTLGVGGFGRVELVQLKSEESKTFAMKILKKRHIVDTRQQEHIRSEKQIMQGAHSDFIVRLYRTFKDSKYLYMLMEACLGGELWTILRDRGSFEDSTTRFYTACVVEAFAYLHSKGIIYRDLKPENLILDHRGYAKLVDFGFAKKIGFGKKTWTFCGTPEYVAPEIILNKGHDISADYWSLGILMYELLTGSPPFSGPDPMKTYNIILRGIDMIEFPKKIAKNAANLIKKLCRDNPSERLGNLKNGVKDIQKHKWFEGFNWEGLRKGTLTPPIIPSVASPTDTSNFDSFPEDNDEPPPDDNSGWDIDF
The following applies: PKG1a; for remaining activity at 0.1 µM: 100 nM.
Text: as §1

Experiment [3] deals with T3, 363 human kinases (including Aurora A/B/C) (Homo sapiens, UniProt Q8TD08).
T3 sequence (Q8TD08 1-544): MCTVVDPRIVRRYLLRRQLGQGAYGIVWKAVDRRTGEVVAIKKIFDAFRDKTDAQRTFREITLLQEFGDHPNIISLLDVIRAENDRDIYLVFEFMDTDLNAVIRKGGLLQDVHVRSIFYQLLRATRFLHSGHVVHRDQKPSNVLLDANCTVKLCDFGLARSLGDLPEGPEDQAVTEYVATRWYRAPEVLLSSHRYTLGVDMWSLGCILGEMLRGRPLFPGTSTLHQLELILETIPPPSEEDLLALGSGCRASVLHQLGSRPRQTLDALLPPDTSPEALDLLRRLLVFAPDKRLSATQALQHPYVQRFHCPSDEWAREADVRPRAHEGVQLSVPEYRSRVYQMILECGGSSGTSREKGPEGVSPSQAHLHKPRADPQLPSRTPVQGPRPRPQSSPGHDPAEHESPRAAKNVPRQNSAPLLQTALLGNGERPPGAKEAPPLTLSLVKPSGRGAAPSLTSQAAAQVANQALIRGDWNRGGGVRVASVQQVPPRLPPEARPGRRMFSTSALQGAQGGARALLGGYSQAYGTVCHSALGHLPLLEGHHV
The note with it: ERK7/MAPK15, [ATP] 10 µM; for remaining activity at 0.5 µM / remaining activity at 0.1 µM: read-out: % Enzyme Activity (relative to DMSO controls); for remaining activity at 0.1 µM: 100 nM.
Text: as §1

Experiment [4] addresses 363 human kinases (including Aurora A/B/C) (Homo sapiens, UniProt Q96RG2). The following applies: PASK; for remaining activity at 0.5 µM / remaining activity at 0.1 µM: read-out: % Enzyme Activity (relative to DMSO controls); for remaining activity at 0.1 µM: 100 nM.
Text: as §1
The target in experiment [5] is T4, 363 human kinases (including Aurora A/B/C) (Homo sapiens, UniProt Q9UHD2).
T4 sequence (Q9UHD2 1-729): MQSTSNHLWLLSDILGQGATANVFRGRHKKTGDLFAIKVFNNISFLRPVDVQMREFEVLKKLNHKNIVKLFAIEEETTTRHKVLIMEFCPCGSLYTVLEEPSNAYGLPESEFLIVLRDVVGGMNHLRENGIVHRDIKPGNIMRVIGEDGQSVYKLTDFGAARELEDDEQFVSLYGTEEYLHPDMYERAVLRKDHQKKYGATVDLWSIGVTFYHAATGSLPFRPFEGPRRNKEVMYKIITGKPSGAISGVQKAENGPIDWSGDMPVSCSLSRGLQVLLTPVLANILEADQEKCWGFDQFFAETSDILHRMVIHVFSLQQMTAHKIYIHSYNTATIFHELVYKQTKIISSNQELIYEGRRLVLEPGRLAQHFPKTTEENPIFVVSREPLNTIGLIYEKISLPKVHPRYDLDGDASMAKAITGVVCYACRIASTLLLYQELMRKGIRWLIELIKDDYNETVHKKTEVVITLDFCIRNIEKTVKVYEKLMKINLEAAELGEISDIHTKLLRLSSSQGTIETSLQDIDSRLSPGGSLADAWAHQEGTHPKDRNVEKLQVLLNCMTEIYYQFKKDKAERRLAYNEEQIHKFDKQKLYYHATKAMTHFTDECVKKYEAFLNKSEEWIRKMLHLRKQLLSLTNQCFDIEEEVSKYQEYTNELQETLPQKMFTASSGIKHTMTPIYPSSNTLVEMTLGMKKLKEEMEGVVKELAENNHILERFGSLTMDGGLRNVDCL
The note with it: TBK1; for remaining activity at 0.5 µM / remaining activity at 0.1 µM: read-out: % Enzyme Activity (relative to DMSO controls); for remaining activity at 0.1 µM: 100 nM.
Text: as §1

[6] abbreviates: read-out: % Enzyme Activity (relative to DMSO controls).

Where two headings read alike, the source gives them in different places.

Chain of 363 human kinases (including Aurora A/B/C) (Homo sapiens, UniProt Q96RG2) (Q96RG2 whole entry): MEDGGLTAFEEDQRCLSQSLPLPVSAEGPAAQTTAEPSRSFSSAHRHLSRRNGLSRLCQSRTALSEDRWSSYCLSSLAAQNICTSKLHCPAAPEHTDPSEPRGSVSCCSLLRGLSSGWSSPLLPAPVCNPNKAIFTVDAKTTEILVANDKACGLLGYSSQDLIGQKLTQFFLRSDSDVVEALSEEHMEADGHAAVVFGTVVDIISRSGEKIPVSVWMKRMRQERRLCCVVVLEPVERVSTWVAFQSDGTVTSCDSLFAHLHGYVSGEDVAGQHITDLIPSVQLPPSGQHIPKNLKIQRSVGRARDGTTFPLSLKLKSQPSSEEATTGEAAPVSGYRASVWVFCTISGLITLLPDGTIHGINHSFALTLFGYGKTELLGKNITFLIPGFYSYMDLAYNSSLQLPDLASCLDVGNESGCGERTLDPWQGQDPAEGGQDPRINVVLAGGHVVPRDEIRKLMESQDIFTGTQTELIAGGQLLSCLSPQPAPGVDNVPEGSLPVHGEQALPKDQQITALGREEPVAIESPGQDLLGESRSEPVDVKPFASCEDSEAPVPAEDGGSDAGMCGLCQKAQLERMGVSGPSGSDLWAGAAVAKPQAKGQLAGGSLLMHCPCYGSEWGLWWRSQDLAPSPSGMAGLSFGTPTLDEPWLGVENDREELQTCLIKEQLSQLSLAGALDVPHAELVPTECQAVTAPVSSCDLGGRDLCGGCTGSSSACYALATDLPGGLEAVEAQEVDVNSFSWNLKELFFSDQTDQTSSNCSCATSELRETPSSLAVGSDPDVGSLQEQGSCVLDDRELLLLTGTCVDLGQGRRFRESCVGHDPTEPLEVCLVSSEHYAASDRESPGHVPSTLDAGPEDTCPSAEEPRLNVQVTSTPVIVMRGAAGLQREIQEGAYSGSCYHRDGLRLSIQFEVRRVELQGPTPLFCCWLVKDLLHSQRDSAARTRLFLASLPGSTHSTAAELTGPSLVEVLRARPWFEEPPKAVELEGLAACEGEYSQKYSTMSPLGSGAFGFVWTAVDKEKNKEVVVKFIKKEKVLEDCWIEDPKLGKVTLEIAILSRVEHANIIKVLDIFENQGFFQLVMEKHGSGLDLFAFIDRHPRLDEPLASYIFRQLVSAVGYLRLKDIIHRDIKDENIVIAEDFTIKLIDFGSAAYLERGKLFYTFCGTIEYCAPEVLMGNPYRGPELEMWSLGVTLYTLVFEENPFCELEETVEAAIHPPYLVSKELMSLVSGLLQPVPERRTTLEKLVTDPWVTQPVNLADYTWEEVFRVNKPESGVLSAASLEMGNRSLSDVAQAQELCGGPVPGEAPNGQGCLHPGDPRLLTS

As for `O=C(c1cccc(Cl)c1F)N1CCN(Cc2cccc(Nc3nccs3)n2)CC1` [MK-8745], the “% Enzyme Activity (relative to DMSO controls)” value in experiment [1] (Aurora A, 500 nM) was 0.37%; in experiment [2] (500 nM) it was 94.34%; in experiment [3] (500 nM), 85.14%; in experiment [4] (500 nM), 101.46%; in experiment [5] (500 nM), 102.60%. The remaining activity at 0.5 µM in experiment [1] (Aurora A, 500 nM, read-out: % Enzyme Activity (relative to DMSO controls)) was 0.55%; in experiment [2] (500 nM, read-out: % Enzyme Activity (relative to DMSO controls)), 95.4%; in experiment [3] (500 nM), 92.2%; in experiment [4] (500 nM) it was 103%; in experiment [5] (500 nM) it was 105%.
Turning to `CCn1cc(-c2ccnc3[nH]c(-c4cccc(CN(C)C)c4)cc23)c(-c2ccc(NC(=O)N(C)C)cc2)n1` [GSK1070916], the remaining activity at 0.1 µM is 25.9% in experiment [1] (read-out: % Enzyme Activity (relative to DMSO controls), Aurora A); 126% in experiment [2] (setting [6]); 102% in experiment [3]; 102% in experiment [4]; 93.7% in experiment [5].
For the compound `O=C(O)[C@]1(Cc2cccc(Nc3nccs3)n2)CC[C@@H](Oc2cccc(Cl)c2F)CC1` [MK-5108], the remaining activity at 0.1 µM is 2.38% in experiment [1] (Aurora A, read-out: % Enzyme Activity (relative to DMSO controls)); 122% in experiment [2] (setting [6]); 83.7% in experiment [3]; 100% in experiment [4]; 108% in experiment [5]. Moreover, the remaining activity at 0.5 µM in experiment [3] (500 nM) was 64.2%; in experiment [4] (500 nM), 104%; in experiment [5] (500 nM) it was 88.6%.
